Experimental data reported in patent publication US7375232B2, “Ortho-heterocyclic substituted aryl amides for controlling invertebrate pests” (E.I. du Pont de Nemours and Company, priority 2001, dated 2008).

melting point: 87 to 89 °C
SMILES: Cc1cc(Cl)cc(-n2cccn2)c1NC(=O)c1cc(C(F)(F)F)nn1-c1ccccc1Cl [Compound 16]
